Data published in patent publication US6335443B1, “Chemical synthesis of exochelins” (Keystone Biomedical, Inc., priority 1998, dated 2002).
Where “and” joins values, the source holds several entries; their conditions need not be identical. Identical values can stand only once.

Tested on: ferri-Exochelin 758SM
Assay: Capacity to remove iron from a different Exochelin species (Ferri-Exochelin 758SM)
Assay type: binding
Conditions: for % of Calculated Iron-Saturation at Equilibrium 0 h / % of Calculated Iron-Saturation at Equilibrium 1 h / % of Calculated Iron-Saturation at Equilibrium 0 hour / % of Calculated Iron-Saturation at Equilibrium 1 hour: assuming comparable affinities for iron; for % of Calculated Iron-Saturation at Equilibrium 0 hour / % Iron-Saturation 0 hour / % of Calculated Iron-Saturation at Equilibrium 1 hour / % Iron-Saturation 1 hour: Table 2; for affinity for iron (in words): removal of iron from ferri-Exochelin 758SM within 1 h
Description: C. Capacity to Remove Iron from a Different Exochelin Species. To assess the affinity of the synthetic desferri-Exochelin 772SM(R) for iron, its capacity to remove iron from a different Exochelin species, ferri-Exochelin 758SM, was evaluated. The capacity of synthetic and native desferri-Exochelin 772SM(R) to remove iron from ferri-Exochelin 758SM was also evaluated and compared. Either native or synthetic desferri-Exochelin 772SM(R) were independently mixed with ferri-Exochelin 758SM. The amount of iron acquired in 1 hour by the desferri-Exochelins was assayed by subjecting the Exochelin to reverse-phase HPLC on a phenyl column, as described above, and the area under the 450 nm absorbance peak was measured. The amount of iron-Exochelin was then calculated using a conversion factor derived from assaying known amounts of ferri-Exochelin 772SM(R).
C. Capacity to Remove Iron from a Different Exochelin Species. To assess the affinity of the synthetic desferri-Exochelin 772SM(S) for iron, its capacity to remove iron from a different exochelin species, ferri-Exochelin 758SM was evaluated. The capacity of synthetic desferri-Exochelin 772SM(S) and native desferri-Exochelin 772SM(R) to remove iron from ferri-Exochelin 758SM was also evaluated and compared. Either synthetic desferri-Exochelin 772SM(S) or native desferri-Exochelin 772SM(R) was mixed with ferri-Exochelin 758SM. The amount of iron acquired by the desferri-exochelins after 1 hour was assayed by subjecting the molecule to reverse-phase HPLC on a phenyl column, as described above, and the area under the 450 nm absorbance peak was measured. The amount of iron-exochelin was then calculated using a conversion factor derived from assaying known amounts of ferri-Exochelin 772SM(R) and ferri-Exochelin 772SM(S).

[1] = mixed with ferri-Exochelin 758SM

COC(=O)CCCCCC(=O)N(O)CCCCC(NC(=O)C1COC(c2ccccc2O)=N1)C(=O)OC(C)CC(=O)NC1CCCCN(O)C1=O [Synthetic 772SM(R), Exochelin 772SM(R)]
% of Calculated Iron-Saturation at Equilibrium 0 h (Table 1, 0 h, 17.3 µg 772SM(R), Experiment II): 2.0% | % of Calculated Iron-Saturation at Equilibrium 0 h (Table 1, 0 h, 26.1 µg 772SM(R), Experiment I): 2.7% | % Iron-Saturation 0 h (Table 1, 0 h, mixed with ferri-Exochelin 758SM): 1.1% | % of Calculated Iron-Saturation at Equilibrium 1 h (Table 1, 17.3 µg 772SM(R), Experiment II): 90.2% | % of Calculated Iron-Saturation at Equilibrium 1 h (Table 1, 26.1 µg 772SM(R), Experiment I): 81.3% | % of Calculated Iron-Saturation at Equilibrium 1 h (Table 1, listed as synthetic Exochelin 772SM(R)): 81.3% and 90.2% | % Iron-Saturation 1 h (Table 1, mixed with ferri-Exochelin 758SM, 17.3 µg 772SM(R), Experiment II): 48.6% | % Iron-Saturation 1 h (Table 1, mixed with ferri-Exochelin 758SM, 26.1 µg 772SM(R), Experiment I): 33.5% | % Iron-Saturation 1 h (Table 1, mixed with ferri-Exochelin 758SM, listed as synthetic Exochelin 772SM(R)): 33.5% and 48.6% | % of Calculated Iron-Saturation at Equilibrium 0 hour: 2.3% | % Iron-Saturation 0 hour [1]: 1.1% | % of Calculated Iron-Saturation at Equilibrium 1 hour: 90.7% | % of Calculated Iron-Saturation at Equilibrium 1 hour (listed as synthetic Exochelin 772SM(R)): 90.7% | % Iron-Saturation 1 hour [1]: 42.9% | % Iron-Saturation 1 hour (mixed with ferri-Exochelin 758SM, listed as synthetic Exochelin 772SM(R)): 42.9% | affinity for iron (in words): very high affinity for iron

COC(=O)CCCCCC(=O)N(O)CCCCC(NC(=O)C1COC(c2ccccc2O)=N1)C(=O)OC(C)CC(=O)NC1CCCCN(O)C1=O [Synthetic 772SM(S), Exochelin 772SM(S)]
% of Calculated Iron-Saturation at Equilibrium 0 hour: 2.3% | % Iron-Saturation 0 hour [1]: 1.0% | % of Calculated Iron-Saturation at Equilibrium 1 hour: 89.6% | % of Calculated Iron-Saturation at Equilibrium 1 hour (listed as synthetic Exochelin 772SM(S)): 89.6% | % Iron-Saturation 1 hour [1]: 39.7% | % Iron-Saturation 1 hour (mixed with ferri-Exochelin 758SM, listed as synthetic Exochelin 772SM(S)): 39.7% | affinity for iron (in words): very high affinity for iron
